Values quoted from earlier work as cited in US8492370B2, “Compounds and methods for their production” (Bristol-Myers Squibb Company, priority 2006, dated 2013).

How the values were obtained:
[1] = biological target: Hsp90 (Homo sapiens, UniProt P07900)
[2] = tested on: SKBr3; conditions: compared with geldanamycin and 17-AAG
[3] = tested on: Reverse transcriptase
[4] = biological target: terminal deoxynucleotidyl transferase (Homo sapiens, UniProt P04053)
terminal deoxynucleotidyl transferase, sequence (P04053 whole entry, species assumed): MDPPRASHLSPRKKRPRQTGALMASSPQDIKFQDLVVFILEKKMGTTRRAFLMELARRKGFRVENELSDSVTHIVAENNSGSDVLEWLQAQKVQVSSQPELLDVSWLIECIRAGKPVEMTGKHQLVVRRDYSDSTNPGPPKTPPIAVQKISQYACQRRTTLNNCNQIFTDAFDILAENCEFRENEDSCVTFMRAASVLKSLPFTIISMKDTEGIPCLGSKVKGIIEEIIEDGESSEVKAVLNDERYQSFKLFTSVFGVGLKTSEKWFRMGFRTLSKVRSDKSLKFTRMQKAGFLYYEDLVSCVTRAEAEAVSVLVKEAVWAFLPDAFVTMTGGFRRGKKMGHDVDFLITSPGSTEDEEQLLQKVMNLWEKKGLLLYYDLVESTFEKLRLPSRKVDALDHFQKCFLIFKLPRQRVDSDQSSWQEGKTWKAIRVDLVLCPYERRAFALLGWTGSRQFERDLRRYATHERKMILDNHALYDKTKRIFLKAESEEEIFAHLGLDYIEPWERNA

Structure (SMILES): CO[C@H]1C[C@H](C)Cc2cc(O)cc(c2)NC(=O)/C=C/CC[C@H](OC)[C@@H](OC(N)=O)/C(C)=C/[C@H](C)[C@H]1O [KOSN1559]
- binding affinity to Hsp90, fold greater than 17-AAG ([1]; relative to 17-AAG): 8 fold
- binding affinity to Hsp90, fold greater than geldanamycin ([1]; relative to geldanamycin): 4 fold
- IC50 measurement using SKBr3 [2]: not reflected in an improvement

Structure (SMILES): CO[C@H]1[C@@H](OC)C[C@H](C)[C@@H](OC)C2=CC(=O)C=C(NC(=O)/C(C)=C/C=C\[C@H](C)[C@@H](OC(N)=O)/C(C)=C/[C@@H]1C)C2=O [macbecin]
- Reverse transcriptase activity inhibition [3]: not inhibited
- terminal deoxynucleotidyl transferase activity inhibition [4]: not inhibited
